Assay [1] deals with LLC-PK1. Nature of the assay: Renoprotective activity in pig LLC-PK1 cells assessed as inhibition of cisplatin-induced oxidative stress by measuring cell viability up to 250 uM after 24 hrs by MTT assay. The note with it: Sus scrofa. The class given is functional, cell-based. In general terms: Tetrazolium assays rely on reduction of a dye to a coloured formazan, in cell work by metabolically active cells.

For assay [2], the system named is LLC-PK1. In words: Renoprotective activity in pig LLC-PK1 cells assessed as inhibition of cisplatin-induced oxidative stress by measuring cell viability at 25 uM after 24 hrs by MTT assay relative to control. The class given is functional, Sus scrofa.
The test system of assay [3] is LLC-PK1. Nature of the assay: Renoprotective activity in pig LLC-PK1 cells assessed as inhibition of cisplatin-induced cytotoxicity by measuring cell viability at 10 to 50 uM by phase contrast microscopic method. The note with it: Sus scrofa. The assay is classed as functional, cell-based.
In assay [4] the test system is LLC-PK1. Nature of the assay: Renoprotective activity in pig LLC-PK1 cells assessed as inhibition of cisplatin-induced cell death by measuring cell viability at 50 uM by flow cytometry. The class given is functional, cell-based. Conditions: Sus scrofa. In general terms: A flow cytometer gives signals particle by particle.
For assay [5], the species on record is Sus scrofa. Nature of the assay: Inhibition of cisplatin-induced MAPK p38 phosphorylation in pig LLC-PK1 cells at 10 to 50 uM after 24 hrs by Western blot method. The class given is cell-based. (Immunoblotting shows a protein as a band on a membrane.)
The species named for assay [6] is Sus scrofa. Nature of the assay: Inhibition of cisplatin-induced MAPK JNK phosphorylation in pig LLC-PK1 cells at 10 to 50 uM after 24 hrs by Western blot method. The assay is classed as cell-based.
Assay [7] deals with LLC-PK1. Nature of the assay: Renoprotective activity in pig LLC-PK1 cells assessed as inhibition of cisplatin-induced cleaved caspase-3 levels at 10 to 50 uM after 24 hrs by Western blot method. The class given is functional, cell-based. The note with it: Sus scrofa.

Activity calls are given as the source filed them. The calls are words filed in the database; no cut-off is given here. Bounds are passed on as bounds.

For `C/C=C1/[C@@H](n2cc(CCCC#N)nn2)C[C@H]2[C@@H]3CCC4=CC(=O)CC[C@]4(C)[C@H]3CC[C@]12C`, in the assay on LLC-PK1 [1], the inhibition entry was “inactive”.

On to `C/C=C1/[C@@H](n2cc(-c3ccccc3)nn2)C[C@H]2[C@@H]3CCC4=CC(=O)CC[C@]4(C)[C@H]3CC[C@]12C`, for which the inhibition result with LLC-PK1 [1] was “Active”.

Take `C/C=C1/[C@@H](n2cc(-c3ccc(C)cc3)nn2)C[C@H]2[C@@H]3CCC4=CC(=O)CC[C@]4(C)[C@H]3CC[C@]12C`: the inhibition result in the assay with LLC-PK1 [1] was “Active”.

Turning to `C/C=C1/[C@@H](n2cc(CO)nn2)C[C@H]2[C@@H]3CCC4=CC(=O)CC[C@]4(C)[C@H]3CC[C@]12C`, in the assay with LLC-PK1 [2], the Activity is above 90%. Further, the inhibition entry with LLC-PK1 [3], in the assay with LLC-PK1 [4], in the assay filed under Sus scrofa [5], in the assay filed under Sus scrofa [6] and in the assay on LLC-PK1 [7] was “Active” throughout.

With `C/C=C1/[C@@H](n2cc(-c3ccc(F)cc3)nn2)C[C@H]2[C@@H]3CCC4=CC(=O)CC[C@]4(C)[C@H]3CC[C@]12C`, in the assay with LLC-PK1 [1], the inhibition entry was “Active”.

Regarding `C/C=C1/[C@@H](n2cc(CCCC)nn2)C[C@H]2[C@@H]3CCC4=CC(=O)CC[C@]4(C)[C@H]3CC[C@]12C`, the inhibition entry in the assay on LLC-PK1 [1] was “inactive”.
